Tested on: Ishikawa cell line (Var. I) of human endometrial adenocarcinoma
Assay: Ishikawa cell alkaline phosphatase assay of estrogenic activity
Format: cell-based
Source text: The in vitro assay used was developed by Littlefield in 1990 (Endocrinology 1990, 127, p. 2757-2762).
The variant of the cell line used is sensitive to estrogens, to which it responds not through a proliferative activity, but through an activity which stimulates an enzyme, alkaline phosphatase. This assay provides, in a sensitive and specific manner, information on the estrogenic activity since, among steroids, only the estrogens respond to this assay and succeed in stimulating the enzyme activity. The estrogenic activity can also be triggered by non-steroidal substances having a “estrogen-like” effect, such as phytoestrogens. The estrogenic responses obtained below are blocked by the reference anti-estrogen brought into contact, which indicates an estrogen receptor-mediated activity.
The model is an Ishikawa cell line (Var. I) of human endometrial adenocarcinoma (established by Nishida: Acta Obstet Gynaec Jap 1985, 37: 1103-1111).
Specifically, alkaline phosphatase hydrolyzes p-nitrophenol phosphate to p-nitrophenol, which gives a colored reaction.
The assay consists in measuring the absorbance at 405 nm after incubation for 72 h.
Two controls were used: • positive control=17β-estradiol, • negative control=antiestrogen ICI182, 780 from Zeneca. […]

| Compound | estrogenic activity / response (in words) (alkaline phosphatase activation in Ishikawa cells, absorbance at 405 nm after 72 h) | blocking of the estrogenic responses by the anti-estrogen (reference anti-estrogen brought into contact, indicates estrogen receptor-mediated activity) |
| --- | --- | --- |
| C[C@]12CC[C@@H]3c4ccc(O)cc4CC[C@H]3[C@@H]1CC[C@@H]2O [17β-Estradiol, 17β-estradiol] | expected dose-effect relationship |  |
| C[C@]12CC[C@@H]3c4ccc(O)cc4C[C@@H](CCCCCCCCC[S+]([O-])CCCC(F)(F)C(F)(F)F)[C@H]3[C@@H]1CC[C@@H]2O (stereo partly drawn) [reference anti-estrogen] |  | blocked |
